Laboratory results as given in ChEMBL document CHEMBL3392983, “Synthesis, antimicrobial activity and molecular docking of novel tetracyclic scaffolds incorporating a flavonoid framework with medium sized oxygen heterocycles” (2015).
Converted amounts (≈) assume the structure as drawn.

How the values were obtained:
Format in all cases: functional
[1] = system: Candida albicans; experiment: Antimicrobial activity against Candida albicans ATCC 10231 assessed as inhibition of microbial growth incubated for 72 hrs by broth dilution method; settings: ATCC 10231, 72 h
[2] = system: Candida tropicalis; experiment: Antimicrobial activity against Candida tropicalis ATCC 750 assessed as inhibition of microbial growth incubated for 72 hrs by broth dilution method; settings: ATCC 750, 72 h
[3] = system: Pseudomonas aeruginosa; experiment: Antimicrobial activity against Pseudomonas aeruginosa ATCC 10145 assessed as inhibition of microbial growth incubated for 24 hrs by broth dilution method
[4] = system: Bacillus subtilis; experiment: Antimicrobial activity against Bacillus subtilis ATCC 6633 assessed as inhibition of microbial growth incubated for 24 hrs by broth dilution method
[5] = system: Staphylococcus aureus; experiment: Antimicrobial activity against Staphylococcus aureus ATCC 25923 assessed as inhibition of microbial growth incubated for 24 hrs by broth dilution method
[6] = system: Escherichia coli; experiment: Antimicrobial activity against Escherichia coli ATCC 10536 assessed as inhibition of microbial growth incubated for 24 hrs by broth dilution method
[7] = system: Klebsiella pneumoniae; experiment: Antimicrobial activity against Klebsiella pneumoniae ATCC 10031 assessed as inhibition of microbial growth incubated for 24 hrs by broth dilution method
[8] = system: Staphylococcus aureus; experiment: Bactericidal activity against Staphylococcus aureus ATCC 25923 assessed as microbial killing during 18 hrs post sub-culture onto drug-free solid media by broth dilution method; settings: ATCC 25923, 18 h, read-out: MBC99.9
[9] = system: Bacillus subtilis; experiment: Bactericidal activity against Bacillus subtilis ATCC 6633 assessed as microbial killing during 18 hrs post sub-culture onto drug-free solid media by broth dilution method; settings: ATCC 6633, 18 h, read-out: MBC99.9
[10] = system: Pseudomonas aeruginosa; experiment: Bactericidal activity against Pseudomonas aeruginosa ATCC 10145 assessed as microbial killing during 18 hrs post sub-culture onto drug-free solid media by broth dilution method; settings: ATCC 10145, 18 h, read-out: MBC99.9
[11] = system: Escherichia coli; experiment: Bactericidal activity against Escherichia coli ATCC 10536 assessed as microbial killing during 18 hrs post sub-culture onto drug-free solid media by broth dilution method; settings: ATCC 10536, 18 h, read-out: MBC99.9

Compound	MIC [1]	MIC [2]	MIC [3]	MIC [4]	MIC [5]	MIC [6]	MIC [7]	MBC [8]	MBC [9]	MIC ([3]; ATCC 10145, 24 h)	MIC ([4]; ATCC 6633, 24 h)	MIC ([5]; ATCC 25923, 24 h)	MBC [10]	MIC ([6]; ATCC 10536, 24 h)	MBC [11]	MIC ([7]; ATCC 10031, 24 h)
OC(Cn1cncn1)(Cn1cncn1)c1ccc(F)cc1F [FLUCONAZOLE]	≤ 0.033 µM	≤ 0.033 µM														
GENTAMICIN SULFATE			< 0.017 µM	< 0.017 µM	< 0.017 µM	< 0.017 µM	< 0.017 µM									
O=c1c2c(oc3ccc(Cl)cc13)-c1ccccc1OCCCCO2	> 0.584 µM	> 0.584 µM						0.154 µM (≈ 0.0528 µg/mL)	0.024 µM (≈ 0.00823 µg/mL)	0.146 µM	0.073 µM	0.204 µM	0.058 µM (≈ 0.0199 µg/mL)	0.029 µM	0.028 µM (≈ 0.0096 µg/mL)	0.146 µM
O=c1c2c(oc3ccccc13)-c1ccccc1OCCO2	> 0.714 µM	> 0.714 µM						0.142 µM (≈ 0.0398 µg/mL)	0.071 µM (≈ 0.0199 µg/mL)	0.125 µM	0.071 µM	0.142 µM	0.071 µM (≈ 0.0199 µg/mL)	0.108 µM	0.085 µM (≈ 0.0238 µg/mL)	0.107 µM
O=c1c(O)c(-c2ccccc2O)oc2ccc(Br)cc12	> 0.602 µM	> 0.602 µM								0.12 µM	0.167 µM	0.152 µM		0.135 µM		0.135 µM
O=c1c2c(oc3ccc(Br)cc13)-c1ccccc1OCCCCO2	> 0.518 µM	> 0.518 µM						0.024 µM (≈ 0.00929 µg/mL)	0.053 µM (≈ 0.0205 µg/mL)	0.051 µM	0.066 µM	0.079 µM	0.024 µM (≈ 0.00929 µg/mL)	0.038 µM	0.027 µM (≈ 0.0105 µg/mL)	0.09 µM
O=c1c2c(oc3ccc(F)cc13)-c1ccccc1OCCCCO2	> 0.613 µM	> 0.613 µM						0.081 µM (≈ 0.0264 µg/mL)	0.04 µM (≈ 0.0131 µg/mL)	0.076 µM	0.092 µM	0.153 µM	0.03 µM (≈ 0.00979 µg/mL)	0.062 µM	0.055 µM (≈ 0.0179 µg/mL)	0.046 µM
O=c1c2c(oc3ccccc13)-c1ccccc1OCCCCO2	> 0.649 µM	> 0.649 µM						0.059 µM (≈ 0.0182 µg/mL)	0.064 µM (≈ 0.0197 µg/mL)	0.113 µM	0.064 µM	0.097 µM	0.082 µM (≈ 0.0253 µg/mL)	0.146 µM	0.072 µM (≈ 0.0222 µg/mL)	0.064 µM
O=c1c(O)c(-c2ccccc2O)oc2ccc(Cl)cc12	> 0.694 µM	> 0.694 µM								0.157 µM	0.173 µM	0.19 µM		0.14 µM		0.138 µM
O=c1c(O)c(-c2ccccc2O)oc2ccc(F)cc12	> 0.735 µM	> 0.735 µM								0.275 µM	0.167 µM	0.259 µM		0.22 µM		0.202 µM
O=c1c2c(oc3ccccc13)-c1ccccc1OCCCCCO2	> 0.621 µM	> 0.621 µM						0.154 µM (≈ 0.0496 µg/mL)	0.159 µM (≈ 0.0513 µg/mL)	0.062 µM	0.186 µM	0.155 µM	0.089 µM (≈ 0.0287 µg/mL)	0.063 µM	0.059 µM (≈ 0.019 µg/mL)	0.077 µM
O=c1c2c(oc3ccc(Br)cc13)-c1ccccc1OCCCCCO2	> 0.5 µM	> 0.5 µM						0.04 µM (≈ 0.0161 µg/mL)	0.035 µM (≈ 0.014 µg/mL)	0.062 µM	0.063 µM	0.051 µM	0.05 µM (≈ 0.0201 µg/mL)	0.025 µM	0.02 µM (≈ 0.00803 µg/mL)	0.037 µM
O=c1c2c(oc3ccc(Br)cc13)-c1ccccc1OCCO2	> 0.558 µM	> 0.558 µM						0.023 µM (≈ 0.00826 µg/mL)	0.023 µM (≈ 0.00826 µg/mL)	0.097 µM	0.027 µM	0.027 µM	0.061 µM (≈ 0.0219 µg/mL)	0.097 µM	0.061 µM (≈ 0.0219 µg/mL)	0.083 µM
O=c1c2c(oc3ccc(F)cc13)-c1ccccc1OCCO2	> 0.671 µM	> 0.671 µM						0.093 µM (≈ 0.0277 µg/mL)	0.073 µM (≈ 0.0218 µg/mL)	0.1 µM	0.117 µM	0.134 µM	0.033 µM (≈ 0.00984 µg/mL)	0.167 µM	0.096 µM (≈ 0.0286 µg/mL)	0.117 µM
O=c1c2c(oc3ccc(F)cc13)-c1ccccc1OCCCCCO2	> 0.588 µM	> 0.588 µM						0.11 µM (≈ 0.0374 µg/mL)	0.039 µM (≈ 0.0133 µg/mL)	0.073 µM	0.117 µM	0.132 µM	0.035 µM (≈ 0.0119 µg/mL)	0.102 µM	0.074 µM (≈ 0.0252 µg/mL)	0.088 µM
O=c1c2c(oc3ccc(F)cc13)-c1ccccc1OCCCO2	> 0.641 µM	> 0.641 µM						0.116 µM (≈ 0.0362 µg/mL)	0.032 µM (≈ 0.00999 µg/mL)	0.064 µM	0.081 µM	0.129 µM	0.032 µM (≈ 0.00999 µg/mL)	0.16 µM	0.096 µM (≈ 0.03 µg/mL)	0.112 µM
O=c1c2c(oc3ccc(Cl)cc13)-c1ccccc1OCCO2	> 0.636 µM	> 0.636 µM						0.033 µM (≈ 0.0104 µg/mL)	0.035 µM (≈ 0.011 µg/mL)	0.063 µM	0.065 µM	0.033 µM	0.063 µM (≈ 0.0198 µg/mL)	0.047 µM	0.027 µM (≈ 0.0085 µg/mL)	0.047 µM
O=c1c(O)c(-c2ccccc2O)oc2ccccc12	> 0.787 µM	> 0.787 µM								0.157 µM	0.218 µM	0.198 µM		0.177 µM		0.177 µM
O=c1c2c(oc3ccc(Br)cc13)-c1ccccc1OCCCO2	> 0.537 µM	> 0.537 µM						0.025 µM (≈ 0.00933 µg/mL)	0.025 µM (≈ 0.00933 µg/mL)	0.04 µM	0.04 µM	0.053 µM	0.037 µM (≈ 0.0138 µg/mL)	0.032 µM	0.027 µM (≈ 0.0101 µg/mL)	0.026 µM
O=c1c2c(oc3ccccc13)-c1ccccc1OCCCO2	> 0.68 µM	> 0.68 µM						0.136 µM (≈ 0.04 µg/mL)	0.034 µM (≈ 0.01 µg/mL)	0.136 µM	0.085 µM	0.272 µM	0.084 µM (≈ 0.0247 µg/mL)	0.051 µM	0.052 µM (≈ 0.0153 µg/mL)	0.102 µM
O=c1c2c(oc3ccc(Cl)cc13)-c1ccccc1OCCCO2	> 0.609 µM	> 0.609 µM						0.051 µM (≈ 0.0168 µg/mL)	0.075 µM (≈ 0.0247 µg/mL)	0.06 µM	0.077 µM	0.092 µM	0.03 µM (≈ 0.00986 µg/mL)	0.045 µM	0.03 µM (≈ 0.00986 µg/mL)	0.106 µM
O=c1c2c(oc3ccc(Cl)cc13)-c1ccccc1OCCCCCO2	> 0.561 µM	> 0.561 µM						0.088 µM (≈ 0.0314 µg/mL)	0.014 µM (≈ 0.005 µg/mL)	0.07 µM	0.028 µM	0.14 µM	0.028 µM (≈ 0.00999 µg/mL)	0.057 µM	0.034 µM (≈ 0.0121 µg/mL)	0.028 µM
